According to patent US6737383B1, “Herbicidal oxadiazolidines” (priority 1999, dated 2004):

Tests used:
blackgrass = experiment: Test B pre/postemergence blackgrass; format: in vivo, Alopecurus myosuroides
Summary of the method: (§1)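 Test chemicals in a non-phytotoxic solvent mixture with surfactant were sprayed preemergence onto planted seeds and postemergence onto plants 2 to 18 cm tall (1- to 4-leaf stage). After twelve to sixteen days in a greenhouse, injury was visually rated against untreated controls from 0 (no effect) to 10 (complete control).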

crabgrass = experiment: Test B pre/postemergence crabgrass; format: in vivo, Digitaria sanguinalis
Summary of the method: as §1

sugar beet = experiment: Test B pre/postemergence sugar beet; format: in vivo, Beta vulgaris
Summary of the method: as §1

duck salad = experiment: Test B flood test duck salad; format: in vivo, Heteranthera limosa
Summary of the method: (§2)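 Each value is a visual injury score relative to controls, with 10 meaning complete control and 0 no effect. Evaluation took place twelve to sixteen days after the 2-leaf-stage plants were treated and kept in the greenhouse.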

soybean = experiment: Test B pre/postemergence soybean; format: in vivo, Glycine max
Summary of the method: as §1

bedstraw = experiment: Test B pre/postemergence bedstraw; format: in vivo, Galium aparine
Summary of the method: as §1

wheat = experiment: Test B pre/postemergence wheat; format: in vivo, Triticum aestivum
Summary of the method: as §1

rice = experiment: Test B flood test rice; format: in vivo, Oryza sativa; conditions: Rate 500 g/ha, Pre-emergence section of Table B; 0 to 10 scale (0 no effect, 10 complete control)
Summary of the method: as §2

corn = experiment: Test B pre/postemergence corn; format: in vivo, Zea mays
Summary of the method: as §1

pigweed = experiment: Test B pre/postemergence pigweed; format: in vivo, Amaranthus retroflexus
Summary of the method: as §1

surinam grass = experiment: Test B pre/postemergence surinam grass; format: in vivo, Brachiaria decumbens
Summary of the method: as §1

velvetleaf = experiment: Test B pre/postemergence velvetleaf; format: in vivo, Abutilon theophrasti
Summary of the method: as §1

cocklebur = experiment: Test B pre/postemergence cocklebur; format: in vivo, Xanthium strumarium
Summary of the method: as §1

wild oat = experiment: Test B pre/postemergence wild oat; format: in vivo, Avena fatua
Summary of the method: as §1

giant foxtail = experiment: Test B pre/postemergence giant foxtail; format: in vivo, Setaria faberii
Summary of the method: as §1

purple nutsedge = experiment: Test B pre/postemergence purple nutsedge; format: in vivo, Cyperus rotundus
Summary of the method: as §1

[1] = Postemergence, Rate 62 g/ha, scale of 0 to 10, 0 is no effect, 10 is complete control
[2] = Postemergence, Rate 125 g/ha, scale 0 to 10, 0 is no effect, 10 is complete control
[3] = Postemergence, Rate 500 g/ha, scale of 0 to 10 where 0 is no effect and 10 is complete control
[4] = Preemergence, Rate 62 g/ha, scale 0 to 10 (0 no effect, 10 complete control)
[5] = Preemergence, Rate 125 g/ha, scale 0 to 10, 0 is no effect, 10 is complete control
[6] = Preemergence, Rate 500 g/ha, scale of 0 to 10 where 0 is no effect and 10 is complete control
[7] = Rate 250 g/ha, Postemergence, scale of 0 to 10 where 0 is no effect and 10 is complete control

`CCCCCCn1c(=O)on(C(=O)N(c2ccccc2)C(C)C)c1=O` [Compound 558] was tested, and the “Blackgrass plant response rating” value (blackgrass; [1]) was 0, the “Blackgrass plant response rating” value (blackgrass; [2]) was 0 and the “Plant response rating, Blackgrass” value (blackgrass; [3]) was 2. For the same molecule, the “Blackgrass plant response rating” value (blackgrass; [4]) was 2, the “Blackgrass plant response rating” value (blackgrass; [5]) was 2 and the “Blackgrass plant response rating (0 to 10 scale)” value (blackgrass; Preemergence, Rate 250 g/ha) was 6. For the same molecule, the “Blackgrass plant response rating” value (blackgrass; [6]) was 9, the “Plant response rating, Blackgrass” value (blackgrass; [7]) was 2 and the “Crabgrass plant response rating” value (crabgrass; [1]) was 0. For the same molecule, the “Crabgrass plant response rating” value (crabgrass; [2]) was 0, the “Plant response rating, Crabgrass” value (crabgrass; [3]) was 8 and the “Crabgrass plant response rating” value (crabgrass; [4]) was 8. For the same molecule, the “Crabgrass plant response rating” value (crabgrass; [5]) was 9, the “Crabgrass plant response rating (0 to 10 scale)” value (crabgrass; Preemergence, Rate 250 g/ha) was 9 and the “Crabgrass plant response rating” value (crabgrass; [6]) was 9. The “Plant response rating, Crabgrass” value (crabgrass; [7]) was 8, the “Sugarbeets plant response rating” value (sugar beet; [1]) was 0 and the “Plant response rating, Sugarbeets” value (sugar beet; [3]) was 2. The “Sugarbeets plant response rating” value (sugar beet; [4]) was 0, the “Sugarbeets plant response rating” value (sugar beet; [5]) was 0 and the “Sugarbeets plant response rating (0 to 10 scale)” value (sugar beet; Preemergence, Rate 250 g/ha) was 0. The “Sugarbeets plant response rating” value (sugar beet; [6]) was 2, the “Plant response rating, Sugarbeets” value (sugar beet; [7]) was 2 and the “Plant response rating, Ducksalad (0 to 10 scale, 0 is no effect, 10 is complete control)” value (duck salad; Rate 62 g/ha, flood test species, Pre-emergence, visual evaluation after twelve to sixteen days) was 0. For the same molecule, the “Ducksalad plant response rating (0 to 10 scale, 0 is no effect, 10 is complete control)” value (duck salad; Rate 125 g/ha, under heading Pre-emergence, flood test species, visual evaluation after twelve to sixteen days) was 0, the “Ducksalad plant response rating” value (duck salad; Rate 250 g/ha, Pre-emergence (flood test species), scale 0 to 10, 0 is no effect, 10 is complete control) was 0 and the “Ducksalad plant response rating” value (duck salad; Rate 500 g/ha, Pre-emergence section of Table B, 0 to 10 scale (0 no effect, 10 complete control)) was 0. The “Soybean plant response rating” value (soybean; [1]) was 3, the “Plant response rating, Soybean” value (soybean; [3]) was 4 and the “Soybean plant response rating” value (soybean; [4]) was 0. The “Soybean plant response rating” value (soybean; [5]) was 0, the “Soybean plant response rating (0 to 10 scale)” value (soybean; Preemergence, Rate 250 g/ha) was 0 and the “Soybean plant response rating” value (soybean; [6]) was 0. For the same molecule, the “Plant response rating, Soybean” value (soybean; [7]) was 4, the “Bedstraw plant response rating” value (bedstraw; [2]) was 0 and the “Bedstraw plant response rating” value (bedstraw; [4]) was 0. The “Bedstraw plant response rating” value (bedstraw; [5]) was 0, the “Bedstraw plant response rating (0 to 10 scale)” value (bedstraw; Preemergence, Rate 250 g/ha) was 0 and the “Bedstraw plant response rating” value (bedstraw; [6]) was 0. For the same molecule, the “Plant response rating, Bedstraw” value (bedstraw; [7]) was 0, the “Wheat plant response rating” value (wheat; [1]) was 0 and the “Plant response rating, Wheat” value (wheat; [3]) was 0. The “Wheat plant response rating” value (wheat; [4]) was 0, the “Wheat plant response rating” value (wheat; [5]) was 0 and the “Wheat plant response rating (0 to 10 scale)” value (wheat; Preemergence, Rate 250 g/ha) was 0. The “Wheat plant response rating” value (wheat; [6]) was 2, the “Plant response rating, Wheat” value (wheat; [7]) was 0 and the “Rice plant response rating” value (rice) was 0. The “Corn plant response rating” value (corn; [1]) was 0, the “Corn plant response rating” value (corn; [2]) was 0 and the “Plant response rating, Corn” value (corn; [3]) was 0. For the same molecule, the “Corn plant response rating” value (corn; [4]) was 0, the “Corn plant response rating” value (corn; [5]) was 0 and the “Corn plant response rating (0 to 10 scale)” value (corn; Preemergence, Rate 250 g/ha) was 0. For the same molecule, the “Corn plant response rating” value (corn; [6]) was 0, the “Plant response rating, Corn” value (corn; [7]) was 0 and the “Redroot pigweed plant response rating” value (pigweed; [1]) was 0. For the same molecule, the “Plant response rating, Redroot pigweed” value (pigweed; [3]) was 0, the “Redroot pigweed plant response rating” value (pigweed; [4]) was 0 and the “Redroot pigweed plant response rating” value (pigweed; [5]) was 0. The “Redroot pigweed plant response rating (0 to 10 scale)” value (pigweed; Preemergence, Rate 250 g/ha) was 2, the “Redroot pigweed plant response rating” value (pigweed; [6]) was 2 and the “Plant response rating, Redroot pigweed” value (pigweed; [7]) was 0. The “B. signalgrass plant response rating” value (surinam grass; [1]) was 0, the “Plant response rating, B. signalgrass” value (surinam grass; [3]) was 3 and the “B. signalgrass plant response rating” value (surinam grass; [4]) was 0. The “B. signalgrass plant response rating” value (surinam grass; [5]) was 0, the “B. signalgrass plant response rating (0 to 10 scale, 0 is no effect, 10 is complete control)” value (surinam grass; Preemergence, Rate 250 g/ha) was 3 and the “B. signalgrass plant response rating” value (surinam grass; [6]) was 6. For the same molecule, the “Plant response rating, B. signalgrass” value (surinam grass; [7]) was 0, the “Velvetleaf plant response rating” value (velvetleaf; [1]) was 0 and the “Plant response rating, Velvetleaf” value (velvetleaf; [3]) was 2. The “Velvetleaf plant response rating” value (velvetleaf; [4]) was 0, the “Velvetleaf plant response rating” value (velvetleaf; [5]) was 0 and the “Velvetleaf plant response rating (0 to 10 scale)” value (velvetleaf; Preemergence, Rate 250 g/ha) was 0. For the same molecule, the “Velvetleaf plant response rating” value (velvetleaf; [6]) was 0, the “Plant response rating, Velvetleaf” value (velvetleaf; [7]) was 0 and the “Cocklebur plant response rating” value (cocklebur; [1]) was 0. The “Cocklebur plant response rating” value (cocklebur; [2]) was 0, the “Plant response rating, Cocklebur” value (cocklebur; [3]) was 0 and the “Cocklebur plant response rating” value (cocklebur; [4]) was 0. For the same molecule, the “Cocklebur plant response rating” value (cocklebur; [5]) was 0, the “Cocklebur plant response rating (0 to 10 scale)” value (cocklebur; Preemergence, Rate 250 g/ha) was 0 and the “Cocklebur plant response rating” value (cocklebur; [6]) was 0. For the same molecule, the “Plant response rating, Cocklebur” value (cocklebur; [7]) was 0, the “Wild oats plant response rating” value (wild oat; [1]) was 0 and the “Plant response rating, Wild oats” value (wild oat; [3]) was 0. The “Wild oats plant response rating” value (wild oat; [4]) was 0, the “Wild oats plant response rating” value (wild oat; [5]) was 0 and the “Wild oats plant response rating (0 to 10 scale)” value (wild oat; Preemergence, Rate 250 g/ha) was 0. For the same molecule, the “Wild oats plant response rating” value (wild oat; [6]) was 2, the “Plant response rating, Wild oats” value (wild oat; [7]) was 0 and the “Giant foxtail plant response rating” value (giant foxtail; [1]) was 2. For the same molecule, the “Giant foxtail plant response rating” value (giant foxtail; [2]) was 2, the “Plant response rating, Giant foxtail” value (giant foxtail; [3]) was 8 and the “Giant foxtail plant response rating” value (giant foxtail; [4]) was 8. For the same molecule, the “Giant foxtail plant response rating” value (giant foxtail; [5]) was 9, the “Giant foxtail plant response rating (0 to 10 scale)” value (giant foxtail; Preemergence, Rate 250 g/ha) was 9 and the “Giant foxtail plant response rating” value (giant foxtail; [6]) was 10. For the same molecule, the “Plant response rating, Giant foxtail” value (giant foxtail; [7]) was 5, the “Nutsedge plant response rating” value (purple nutsedge; [1]) was 0 and the “Nutsedge plant response rating” value (purple nutsedge; [2]) was 0. For the same molecule, the “Plant response rating, Nutsedge” value (purple nutsedge; [3]) was 0, the “Nutsedge plant response rating” value (purple nutsedge; [4]) was 0 and the “Nutsedge plant response rating” value (purple nutsedge; [5]) was 0. For the same molecule, the “Nutsedge plant response rating (0 to 10 scale)” value (purple nutsedge; Preemergence, Rate 250 g/ha) was 0, the “Nutsedge plant response rating” value (purple nutsedge; [6]) was 0 and the “Plant response rating, Nutsedge” value (purple nutsedge; [7]) was 0.
